In PMC6332232 (Molecules, 2015):

What was measured:
[1] = Enzyme kinetics of 4(S)-hydroxyevogliptin glucuronidation in pooled human liver microsomes; type: in vitro ADME
Experimental: Therefore, a 20 min incubation time and 0.2 mg/mL microsomal protein concentration were selected for enzyme kinetics experiments. The reaction mixture comprised 50 mM Tris buffer (pH 7.4), 10 mM magnesium chloride, 0.025 mg/mL alamethicin, pooled human liver microsomes (20 μg protein), and various concentrations of 4(S)-hydroxyevogliptin (M2) (10 to 2,000 μM; final acetonitrile concentration not exceeding 0.5%, v/v), and was preincubated for 3 min at 37 °C. The reaction was initiated by adding UDPGA, and the mixture was further incubated (final volume of 100 μL) for 20 min at 37 °C in a shaking water bath. The reaction was stopped by adding 100 μL of MPPI (internal standard, 50 ng/mL) in ice-cold acetonitrile. The mixture was centrifuged at 13,000 rpm for 4 min at 4 °C. […]
Results represent the average of three independent experiments using human liver microsomes and human cDNA-expressed CYP and UGT enzymes. The kinetic parameters (Km and Vmax) for hydroxylation and glucuronidation were determined using the Michaelis-Menten equation [V = Vmax·S/(Km + S)], the Hill equation [V = Vmax·S^n/(Km^n + S^n)], or the isoenzyme equation [V = Vmax1·(S/Km1)/(1 + S/Km1) + Vmax2·(S/Km2)/(1 + S/Km2)] with the Enzyme Kinetics software (version 1.3; Systat Software Inc.). […] The intrinsic clearance (Clint) was calculated as Vmax/Km.

[2] = Enzyme kinetics of evogliptin hydroxylation in pooled human liver microsomes; type: in vitro ADME; settings: single-enzyme kinetics; for Km at 20 min: human, pH 7.4, Km
Experimental: Thus, a 20 min incubation time and 0.15 mg/mL microsomal protein concentration were used in subsequent experiments. […] The mixture was centrifuged at 13,000 rpm for 4 min at 4 °C. Subsequently, 50 μL of the supernatant were diluted with 50 μL of deionized water and an aliquot (5 μL) was injected onto the LC-MS/MS system. Results represent the average of three independent experiments using human liver microsomes and human cDNA-expressed CYP and UGT enzymes. […] Systat Software Inc.). In the above-mentioned equations, V was the velocity of the reaction at substrate concentration [S], Vmax was the maximum velocity, Km was the substrate concentration at which the V was half of Vmax, and n is the Hill constant. The intrinsic clearance (Clint) was calculated as Vmax/Km.

[3] = substrate: CC(C)(C)OC[C@@H]1C(=O)NCCN1C(=O)C[C@H](N)[C@@H](O)c1cc(F)c(F)cc1F; assay: Enzyme kinetics of 4(S)-hydroxyevogliptin glucuronidation in human cDNA-expressed UGT2B4; type: in vitro ADME; settings: other: UGT2B4, single-enzyme kinetics; pH 7.4; 37.0 °C
Experimental: (§1) For the enzyme kinetic study, various concentrations of 4(S)-hydroxyevogliptin (M2) (25 to 2000 μM; final acetonitrile concentration not exceeding 0.5%, v/v) were incubated with human cDNA-expressed UGT2B4 or UGT2B7 enzymes (20 μg protein), 2 mM UDPGA, 0.025 mg/mL alamethicin, and 10 mM magnesium chloride in 50 mM Tris buffer (pH 7.4) for 20 min at 37 °C in a shaking water bath. After adding ice-cold acetonitrile containing internal standard (MPPI, 50 ng/mL), the mixture was centrifuged and diluted as described above, and an aliquot (5 μL) was analyzed using the LC-MS/MS system.
(§2) Results represent the average of three independent experiments using human liver microsomes and human cDNA-expressed CYP and UGT enzymes. The kinetic parameters (Km and Vmax) for hydroxylation and glucuronidation were determined using the Michaelis-Menten equation [V = Vmax·S/(Km + S)], the Hill equation [V = Vmax·S^n/(Km^n + S^n)], or the isoenzyme equation [V = Vmax1·(S/Km1)/(1 + S/Km1) + Vmax2·(S/Km2)/(1 + S/Km2)] with the Enzyme Kinetics software (version 1.3; Systat Software Inc.). In the above-mentioned equations, V was the velocity of the reaction at substrate concentration [S], Vmax was the maximum velocity, Km was the substrate concentration at which the V was half of Vmax, and n is the Hill constant. The intrinsic clearance (Clint) was calculated as Vmax/Km.

[4] = substrate: CC(C)(C)OC[C@@H]1C(=O)NCCN1C(=O)C[C@H](N)[C@@H](O)c1cc(F)c(F)cc1F; assay: Enzyme kinetics of 4(S)-hydroxyevogliptin glucuronidation in human cDNA-expressed UGT2B7; type: in vitro ADME; settings: other: UGT2B7, Hill equation kinetics; pH 7.4; 37.0 °C
Experimental: as §1, §2

not read = substrate: CC(C)(C)OC[C@@H]1C(=O)NCCN1C(=O)C[C@H](N)Cc1cc(F)c(F)cc1F; assay: not read; settings: other: CYP3A5, single-enzyme kinetics; pH 7.4; 37.0 °C

For CC(C)(C)OC[C@@H]1C(=O)NCCN1C(=O)C[C@H](N)[C@@H](O)c1cc(F)c(F)cc1F [4(S)-hydroxyevogliptin], the “Vmax, formation of 4(S)-hydroxyevogliptin glucuronide (M4)” value ([1]; Hill equation) was 711.4 pmol/mg protein/min and the Km at 20 min ([1]; pH 7.4, Hill equation) was 928 µM.

In the case of CC(C)(C)OC[C@@H]1C(=O)NCCN1C(=O)C[C@H](N)Cc1cc(F)c(F)cc1F [evogliptin, (R)-4-((R)-3-amino-4-(2,4,5-trifluorophenyl)butanoyl)-3-(tert-butoxymethyl)-piperazin-2-one], the Km at 20 min ([2]; formation of 4(R)-hydroxyevogliptin (M3)) is reported as 124 µM, the Km at 20 min ([2]; formation of 4(S)-hydroxyevogliptin (M2)) is reported as 93.4 µM and the “Vmax, formation of 4(R)-hydroxyevogliptin (M3)” value [2] is reported as 113.0 pmol/min/mg protein. The “Vmax, formation of 4(S)-hydroxyevogliptin (M2)” value [2] was 91.9 pmol/min/mg protein.

B1: UGT2B4 (Homo sapiens) (protein)
chain: GKVLVWPTEFSHWMNIKTILDELVQRGHEVTVLASSASISFDPNSPSTLKFEVYPVSLTKTEFEDIIKQLVKRWAELPKDTFWSYFSQVQEIMWTFNDILRKFCKDIVSNKKLMKKLQESRFDVVLADAVFPFGELLAELLKIPFVYSLRFSPGYAIEKHSGGLLFPPSYVPVVMSELSDQMTFIERVKNMIYVLYFEFWFQIFDMKKWDQFYSEVLGRPTTLSETMAKADIWLIRNYWDFQFPHPLLPNVEFVGGLHCKPAKPLPKEMEEFVQSSGENGVVVFSLGSMVSNTSEERANVIASALAKIPQKVLWRFDGNKPDTLGLNTRLYKWIPQNDLLGHPKTRAFITHGGANGIYEAIYHGIPMVGVPLFADQPDNIAHMKAKGAAVSLDFHTMSSTDLLNALKTVINDPLYKENAMKLSRIHHDQPVKPLDRAVFWIEFVMRHKGAKHLRVAAHDLTWFQYHSLDVTGFLLACVATVIFIITKCLFCVWKFVRTGKKGKRD
notes: purchased Corning Life Sciences
With B1 the Km [3] was 1,328 μM.

B2: UGT2B7 (Homo sapiens) (protein)
chain: GKVLVWAAEYSHWMNIKTILDELIQRGHEVTVLASSASILFDPNNSSALKIEIYPTSLTKTELENFIMQQIKRWSDLPKDTFWLYFSQVQEIMSIFGDITRKFCKDVVSNKKFMKKVQESRFDVIFADAIFPCSELLAELFNIPFVYSLSFSPGYTFEKHSGGFIFPPSYVPVVMSELTDQMTFMERVKNMIYVLYFDFWFEIFDMKKWDQFYSEVLGRPTTLSETMGKADVWLIRNSWNFQFPYPLLPNVDFVGGLHCKPAKPLPKEMEDFVQSSGENGVVVFSLGSMVSNMTEERANVIASALAQIPQKVLWRFDGNKPDTLGLNTRLYKWIPQNDLLGHPKTRAFITHGGANGIYEAIYHGIPMVGIPLFADQPDNIAHMKARGAAVRVDFNTMSSTDLLNALKRVINDPSYKENVMKLSRIQHDQPVKPLDRAVFWIEFVMRHKGAKHLRVAAHDLTWFQYHSLDVIGFLLVCVATVIFIVTKCCLFCFWKFARKAKKGKND
notes: purchased Corning Life Sciences (Woburn, MA, USA)
B2 showed a Km [4] of 1003.8 µM.

B3: CYP3A5 (Homo sapiens) (protein)
chain: MDLIPNLAVETWLLLAVSLVLLYLYGTRTHGLFKRLGIPGPTPLPLLGNVLSYRQGLWKFDTECYKKYGKMWGTYEGQLPVLAITDPDVIRTVLVKECYSVFTNRRSLGPVGFMKSAISLAEDEEWKRIRSLLSPTFTSGKLKEMFPIIAQYGDVLVRNLRREAEKGKPVTLKDIFGAYSMDVITGTSFGVNIDSLNNPQDPFVESTKKFLKFGFLDPLFLSIILFPFLTPVFEALNVSLFPKDTINFLSKSVNRMKKSRLNDKQKHRLDFLQLMIDSQNSKETESHKALSDLELAAQSIIFIFAGYETTSSVLSFTLYELATHPDVQQKLQKEIDAVLPNKAPPTYDAVVQMEYLDMVVNETLRLFPVAIRLERTCKKDVEINGVFIPKGSMVVIPTYALHHDPKYWTEPEEFRPERFSKKKDSIDPYIYTPFGTGPRNCIGMRFALMNMKLALIRVLQNFSFKPCKETQIPLKLDTQGLLQPEKPIVLKVDSRDGTLSGE
B3 gave a kcat (not read) of 19.5 pmol/min/pmol CYP.
